One block for each molecule: values may come before it.
Assays:
Type in all cases: binding
[1] = biological target: T1, N-terminal CRD of hGalectin-4 (Gal-4N) (Homo sapiens, UniProt P56470); test: 1H-15N HSQC NMR-based titrations (chemical shift perturbation) of 15N-labeled Gal-4N; settings: HSQC NMR-based titration, 50 μM 15N-labeled lectin, 298 K; read-out: KD (μM) (NMR)
T1 construct: N-terminal CRD of hGalectin-4 (amino acids 1–150, including an additional C-terminus His-Tag); His-Tag (C, cleaved yes); made in house; host or cells: E. coli BL21 (pET29b)
T1 sequence (P56470 1-150): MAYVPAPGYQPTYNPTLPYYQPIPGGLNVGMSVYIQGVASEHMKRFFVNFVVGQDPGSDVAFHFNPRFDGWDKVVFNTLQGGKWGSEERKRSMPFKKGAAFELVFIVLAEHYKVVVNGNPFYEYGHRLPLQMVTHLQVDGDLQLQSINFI
Protocol: The molecular recognition event was also analyzed from the perspective of the lectin. Thus, a chemical shift perturbation (CSP) analysis of the changes produced in the ^1H-^15N HSQC spectra recorded for ^15N-labeled Gal-4N upon addition of the different ligands was carried out. This analysis required the NH backbone NMR assignment of the lectin signals, following well-established triple resonance 3D NMR methods (see Materials and methods and Supplementary Information). The assignment protocol allowed assigning 80% of the NH backbone resonances. In addition to the ligands shown in Scheme 1, the corresponding non-fucosylated analogs and the H antigens (devoid of the terminal Gal/GalNAc moieties, see Supplementary Information), as well as lactose, were also employed. Thus, a full comparative analysis on the monosaccharide-specific effects on the lectin CSP was achieved.
The total volume for the NMR samples was 500/μl. The lectin was in phosphate-buffered saline (50 mM sodium phosphate, 150 mM NaCl, pH 7.4), either in D2O or 90:10 H2O:D2O depending on the NMR experiment. The pH was adjusted with the required amount of NaOH and HCl or NaOD and DCl.
experiments were acquired using an 800 MHz Bruker spectrometer with a cryoprobe (Bruker, Billerica, MA, United States). The samples were prepared using 50 μM of the ^15N-labeled lectin in the corresponding buffer in a 90:10 H2O:D2O ratio. The experiments were performed at 298 K. Six to nine points were recorded for each ligand and CSP and KD were calculated using CcpNmr Analysis 2.4.2.

[2] = biological target: T1, N-terminal CRD of hGalectin-4 (Gal-4N); test: 1H Saturation Transfer Difference (STD) NMR epitope mapping
Protocol: ^1H-saturation transfer difference NMR spectra were acquired for mixtures of Gal-4N (50 μM) with a 50-fold excess of ligand. Protein aromatic irradiation afforded the best STD intensities and thus these are discussed henceforth. The STD NMR spectra were very similar among the different ligands with respect to both the observed glycan protons and their intensities. […] Severe proton overlapping precluded a full comparison among ligands, but key isolated ^1H NMR resonance signals permitted to highlight evident differences.
All the STD NMR experiments were performed using an 800 MHz Bruker spectrometer with a cryoprobe (Bruker, Billerica, MA, United States). The samples were prepared in the corresponding deuterated buffer. The temperature was 288 K for every experiment. An amount of 50 μM of the lectin with 50 equivalents of the ligand was employed for every experiment except for lactose, for which a 1:70 ratio was used. The STD spectra were acquired with 1,024 scans, 2 s of saturation time using a train of 50 ms Gaussian-shaped pulses, and 3 s of relaxation delay. The spin-lock filter applied to remove the signals of the lectin was set at 40 ms. The on-resonance frequency was set for the aromatic region at 6.58 ppm, while the off-resonance frequency was set at 100 ppm.
Supplementary Table S1. Relative STD-AF (Amplification factor) and STD percentage of each non overlapping proton of each ligand.

[3] = biological target: T1, N-terminal CRD of hGalectin-4 (Gal-4N); test: Isothermal titration calorimetry (ITC); settings: for Kd: PBS pH 7.4, single binding site model
Protocol: Isothermal titration calorimetry experiments were performed using the MicroCal PEAQ-ITC calorimeter (Malvern Panalytical, Malvern, United Kingdom). Samples containing 100–200 μM of Gal-4N in PBS (50 mM sodium phosphate, pH 7.4, 300 mM NaCl) were titrated with stocks of 3–10 mM in PBS of glycans 4, 5, 7, 8, 9, and 11. During the automated experiment, small aliquots (2–3 μL) of the sugar stocks were added to the cell containing the lectin. Curve fitting to a single binding site model was performed with the MicroCal Origin 7 software.
Isothermal titratrion calorimetry (ITC). Isothermal Titration Calorimetry experiments were performed using MicroCal PEAQ-ITC calorimeter. Samples containing 100-200 µM of Gal-4N in PBS (50 mM sodium phosphate pH 7.4, 300 mM NaCl) were titrated with stocks of 3-10 mM in PBS of glycans A type 1, A type 2, A type 6, B type 1, B type 2 and B type 6. During the automated experiment, small aliquots (2-3 µL) of the sugar stocks were added to the cell containing the lectin. The association constants and the thermodynamic profile of the binding was calculated from the fitting of the titration data to a single binding site model.

[4] = 1H-residue H4GalNAc (terminal, A type 6)
[5] = 1H-residue NHAcGlcNAc (B type 1: first of two lines)
[6] = 1H-residue NHAcGlcNAc (B type 1: second of two lines)
[7] = 1H-residue H4GalNAc (B type 4, core GalNAc)

Kd [1]: 150 µM | STD% ([2]; 1H-residue H1 Fuc): 13% | STD-AF ([2]; 1H-residue H1 Fuc): 0.0020 | STD% ([2]; 1H-residue H1GalNAc): 82% | STD-AF ([2]; 1H-residue H1GalNAc, 50:1 ligand:lectin, 288 K): 0.0129 | STD% ([2]; 1H-residue H1Galβ): 58% | STD-AF ([2]; 1H-residue H1Galβ): 0.0091 | STD% ([2]; 1H-residue H1Glca): 21% | STD-AF ([2]; 1H-residue H1Glca): 0.0033 | STD% ([2]; 1H-residue H1Glcb): 18% | STD-AF ([2]; 1H-residue H1Glcb): 0.0028 | STD% ([2]; 1H-residue H2GalNAc): 51% | STD-AF ([2]; 1H-residue H2GalNAc): 0.0081 | STD% ([2]; 1H-residue H2Glca / H2Glcα): 34% | STD-AF ([2]; 1H-residue H2Glca / H2Glcα): 0.0054 | STD% ([2]; 1H-residue H2Glcb / H2Glcβ): 30% | STD-AF ([2]; 1H-residue H2Glcb / H2Glcβ): 0.0048 | STD% ([2]; 1H-residue H3Galβ): 39% | STD-AF ([2]; 1H-residue H3Galβ): 0.0061 | STD% ([2]; 1H-residue H3Glcb / H3Glcβ): 32% | STD-AF ([2]; 1H-residue H3Glcb / H3Glcβ): 0.0050 | STD% [2, 4]: 16% | STD-AF [2, 4]: 0.0025 | STD% ([2]; 1H-residue H4Galβ): 60% | STD-AF ([2]; 1H-residue H4Galβ): 0.0095 | STD% ([2]; 1H-residue H5Galβ): 100% | STD-AF ([2]; 1H-residue H5Galβ): 0.0158 | STD% ([2]; 1H-residue MetFuc): 10% | STD-AF ([2]; 1H-residue MetFuc): 0.0016 | STD% ([2]; 1H-residue NHAc GalNAc): 100% | STD-AF ([2]; 1H-residue NHAc GalNAc): 0.0158 | -TΔS (kcal mol^–1) (ITC) [3]: 2.9 kcal mol^–1 | ΔG (kcal mol^–1) (ITC) [3]: −5.6 kcal mol^–1 | ΔH (kcal mol^–1) (ITC) [3]: −8.5 kcal mol^–1 | increased affinity of type-6 vs corresponding type-2 antigen ([3]; Glc vs GlcNAc at reducing end, β1–4 linked): two-fold | Kd [3]: 86 µM
SMILES: CC(=O)NC1C(OC2C(O)C(CO)OC(OC3C(CO)OC(O)C(O)C3O)C2OC2OC(C)C(O)C(O)C2O)OC(CO)C(O)C1O (stereo not shown) [A type-6 (tetra)]

Kd [1]: 370 µM | -TΔS (kcal mol^–1) (ITC) [3]: 1.8 kcal mol^–1 | ΔG (kcal mol^–1) (ITC) [3]: −5.1 kcal mol^–1 | ΔH (kcal mol^–1) (ITC) [3]: −6.9 kcal mol^–1 | Kd [3]: 187 µM
SMILES: CC(=O)NC1C(O)OC(CO)C(OC2OC(CO)C(O)C(OC3OC(CO)C(O)C(O)C3NC(C)=O)C2OC2OC(C)C(O)C(O)C2O)C1O (stereo not shown) [A type−2 (tetra)]

Kd [1]: 200 µM | STD% ([2]; 1H-residue H1 Fuc): 0% | STD-AF ([2]; 1H-residue H1 Fuc): 0.0000 | STD% ([2]; 1H-residue H1Galα): 56% | STD-AF ([2]; 1H-residue H1Galα): 0.0053 | STD% ([2]; 1H-residue H1Galβ): 70% | STD-AF ([2]; 1H-residue H1Galβ): 0.0066 | STD% ([2]; 1H-residue H1GlcNAc): 16% | STD-AF ([2]; 1H-residue H1GlcNAc): 0.0015 | STD% ([2]; 1H-residue H2Galα): 35% | STD-AF ([2]; 1H-residue H2Galα): 0.0033 | STD% ([2]; 1H-residue H2GlcNAc): 29% | STD-AF ([2]; 1H-residue H2GlcNAc): 0.0027 | STD% ([2]; 1H-residue H3GlcNAc): 38% | STD-AF ([2]; 1H-residue H3GlcNAc): 0.0036 | STD% ([2]; 1H-residue H4Galβ): 74% | STD-AF ([2]; 1H-residue H4Galβ): 0.0070 | STD% ([2]; 1H-residue H4GlcNAc): 53% | STD-AF ([2]; 1H-residue H4GlcNAc): 0.0050 | STD% ([2]; 1H-residue H5Galα): 23% | STD-AF ([2]; 1H-residue H5Galα): 0.0022 | STD% ([2]; 1H-residue H5Galβ): 100% | STD-AF ([2]; 1H-residue H5Galβ): 0.0094 | STD% ([2]; 1H-residue MetFuc): 14% | STD-AF ([2]; 1H-residue MetFuc): 0.0013 | STD% [2, 5]: 141% | STD-AF [2, 5]: 0.0133 | STD% [2, 6]: 59% | STD-AF [2, 6]: 0.0055 | STD% ([2]; Average NHAc): 100% | STD-AF ([2]; Average NHAc): 0.0094 | -TΔS (kcal mol^–1) (ITC) [3]: 2.3 kcal mol^–1 | ΔG (kcal mol^–1) (ITC) [3]: −5.4 kcal mol^–1 | ΔH (kcal mol^–1) (ITC) [3]: −7.7 kcal mol^–1 | Kd [3]: 109 µM
SMILES: CC(=O)N[C@@H]1[C@@H](O[C@@H]2O[C@H](CO)[C@H](O)[C@H](O[C@H]3O[C@H](CO)[C@H](O)[C@H](O)[C@H]3O)[C@H]2O[C@@H]2O[C@@H](C)[C@@H](O)[C@@H](O)[C@@H]2O)[C@H](O)[C@@H](CO)O[C@H]1O [B type-1 (tetra)]

Kd [1]: 460 µM | STD% ([2]; 1H-residue H1 Fuc): 21% | STD-AF ([2]; 1H-residue H1 Fuc): 0.0020 | STD% ([2]; 1H-residue H1Galα): 100% | STD-AF ([2]; 1H-residue H1Galα): 0.0094 | STD% ([2]; 1H-residue H1Galβ): 49% | STD-AF ([2]; 1H-residue H1Galβ): 0.0046 | STD% ([2]; 1H-residue H2Galβ): 47% | STD-AF ([2]; 1H-residue H2Galβ): 0.0044 | STD% ([2]; 1H-residue H3Galα): 44% | STD-AF ([2]; 1H-residue H3Galα): 0.0041 | STD% [2, 7]: 30% | STD-AF [2, 7]: 0.0028 | STD% ([2]; 1H-residue H4Galβ): 68% | STD-AF ([2]; 1H-residue H4Galβ): 0.0064 | STD% ([2]; 1H-residue H5Galβ): 86% | STD-AF ([2]; 1H-residue H5Galβ): 0.0081 | STD% ([2]; 1H-residue MetFuc): 10% | STD-AF ([2]; 1H-residue MetFuc): 0.0009 | STD% ([2]; 1H-residue NHAc (B type 4)): 36% | STD-AF ([2]; 1H-residue NHAc (B type 4)): 0.0034
SMILES: CC(=O)NC1C(OC2C(O)C(O)OC(CO)C2O)OC(CO)C(O)C1OC1OC(CO)C(O)C(OC2OC(CO)C(O)C(O)C2O)C1OC1OC(C)C(O)C(O)C1O (stereo not shown) [B type-4 (penta)]

Source: paper PMC8097242, “Galectin-4 N-Terminal Domain: Binding Preferences Toward A and B Antigens With Different Peripheral Core Presentations” (Frontiers in Chemistry, 2021)
